Laboratory results reported in patent US4839374A, “4-((Bicyclic heterocyclyl)-methyl and -hetero)-piperidines” (Janssen Pharmaceutica, N.V., priority 1987, dated 1989).

test system: compound 48/80-induced lethality; experiment: Protection of rats from compound 48/80-induced lethality; format: in vivo, rats of an inbred Wistar strain; conditions: Rattus norvegicus, 4 h, read-out: Compound 48/80 lethality test in rats ED50, s.c. or p.o. 1 h before compound 48/80 0.5 mg/kg i.v.; protection of 50% of animals, survival after 4 hours
Experimental: Protection of rats from compound 48/80-induced lethality
The protection from compound 48/80-induced lethal circulatory collapse appears to be a simple way of evaluating quantitatively the antihistaminic activity of test compounds. Male rats of an inbred Wistar strain, weighing 240-260 g were used in the experiment. After overnight starvation the rats were transferred to conditioned laboratories (temp.=21±1° C., relative humidity=65+5%). The rats were treated subcutaneously or orally with a test compound or with the solvent (NaCl solution, 0.9%). […] Survival after 4 hours is therefore considered to be a safe criterion of a protective effect of drug administration. The ED50 -values of the compounds of formula (I) are listed in the first column of tables 1 to 4. Said ED50 -values are the values in mg/kg body weight at which the tested compounds protect 50% of the tested animals against compound 48/80-induced lethality. The compounds of formula (I) and the pharmaceutically acceptable acid addition salts thereof are also potent serotonin-antagonists. The potency of the subject compounds as serotonin-antagonists is clearly evidenced by the results obtained in the following tests wherein the antagonistic activity of the subject compounds on the effect of serotonin is examined.

In order of falling ED50:
1. COc1ccc(CCN2CCC(Cc3nc4ccccc4n3Cc3ccccc3F)CC2)cc1 [Compound 515, 1-[(2-fluorophenyl)methyl]-2-[[1-[2-(4-methoxyphenyl)ethyl]-4-piperidinyl]-methyl]-1H-benzimidazole]  0.16 mg/kg
2. CC(C)N1CCC(Cc2nc3cnccc3n2Cc2ccc(F)cc2)CC1 [Compound 100]  0.16 mg/kg
3. O=c1[nH]c2ccccc2n1CCCN1CCC(Sc2nc3ccccc3n2Cc2ccc(F)cc2)CC1 [Compound 255]  0.16 mg/kg
4. O=C(NCCN1CCC(Cc2nc3ccccc3n2Cc2ccc(F)cc2)CC1)c1cc2ccccc2oc1=O [Compound 445, N-[2-[4-[[1-[(4-fluorophenyl)methyl]-1H-benzimidazol-2-yl]methyl]-1-piperidinyl]ethyl]-2-oxo-2H-1-benzopyran-3-carboxamide]  0.16 mg/kg
5. O=c1[nH]c2ccccc2n1CCCN1CCC(Cc2nc3cccnc3n2Cc2cccs2)CC1 [Compound 215]  0.08 mg/kg
6. c1ccc(Cn2c(CC3CCN(CCNc4ncccn4)CC3)nc3cccnc32)nc1 [Compound 340]  0.08 mg/kg
7. C[C@@H]1CN(CCNc2ncccn2)CC[C@@H]1Oc1nc2ccccc2n1Cc1ccc(F)cc1 (relative stereo) [Compound 349, cis-N-[2-[4-[[1-[(4-fluorophenyl)methyl]-1H-benzimidazol-2-yl]oxy]-3-methyl-1-piperidinyl]ethyl]-2-pyrimidinamine]  0.08 mg/kg
8. Cc1nc2n(c(=O)c1CCN1CCC(Cc3nc4cccnc4n3Cc3ccccn3)CC1)CCCC2 [Compound 258]  0.08 mg/kg
9. COc1ccc(CCN2CCC(Cc3nc4cnccc4n3Cc3ccc(F)cc3)CC2)cc1 [Compound 202, 1-[(4-fluorophenyl)methyl]-2-[[1-[2-(4-methoxyphenyl)ethyl]-4-piperidinyl]-methyl]-1H-imidazo-[4,5-c]pyridine]  0.08 mg/kg
10. Fc1ccc(Cn2c(SC3CCN(CCNc4ncccn4)CC3)nc3ccccc32)cc1 [Compound 333, N-[2-[4-[[1-[(4-fluorophenyl)methyl]-1H-benzimidazol-2-yl]thio]-1-piperidinyl]ethyl]-2-pyrimidinamine]  0.04 mg/kg
11. Cn1c(=O)c2c(ncn2CCN2CCC(Cc3nc4cccnc4n3Cc3ccco3)CC2)n(C)c1=O [Compound 176]  0.04 mg/kg
12. CN1CCC(Cc2nc3ccccc3n2Cc2ccccc2)CC1 [Compound 93]  0.04 mg/kg
13. COc1ccc(CCN2CCC(Cc3nc4ccccc4n3Cc3cscn3)CC2)cc1 [Compound 245, 2-[[1-[2-(4-methoxyphenyl)ethyl]-4-piperidinyl]methyl]-1-(4-thiazolylmethyl)-1H-benzimidazole]  0.02 mg/kg
14. Cc1nc(CCN2CCC(Cc3nc4ccccc4n3Cc3ccc(F)cc3)CC2)cs1 [Compound 459, 1-[(4-fluorophenyl)methyl]-2-[[1-[2-(2-methyl-4-thiazolyl)ethyl]-4-piperidinyl]methyl]-1H-benzimidazole]  0.02 mg/kg
15. O=c1cc[nH]c(=O)n1CCN1CCC(Cc2nc3ccccc3n2Cc2ccco2)CC1 [Compound 175]  0.02 mg/kg
16. O=c1[nH]c2ccccc2c(=O)n1CCCN1CCC(Cc2nc3cccnc3n2Cc2ccco2)CC1 [Compound 169]  0.02 mg/kg
17. O=C(Cc1ccsc1)NCCN1CCC(Cc2nc3ccccc3n2Cc2ccc(F)cc2)CC1 [Compound 440, N-[2-[4-[[1-[(4-fluorophenyl)methyl]-1H-benzimidazol-2-yl]methyl]-1-piperidinyl]ethyl]-3-thiopheneacetamide]  0.02 mg/kg
18. OCCN1CCC(Oc2nc3ccccc3n2Cc2ccc(F)cc2)CC1 [Compound 105, 4-[[1-[(4-fluorophenyl)methyl]-1H-benzimidazol-2-yl]oxy]-1-piperidineethanol]  0.01 mg/kg
19. Fc1ccc(Cn2c(CC3CCN(Cc4cn5cccnc5n4)CC3)nc3ccccc32)cc1 [Compound 183]  0.01 mg/kg
20. Fc1ccc(Cn2c(CC3CCN(CCNc4cccnn4)CC3)nc3ccccc32)cc1 [Compound 500, N-[2-[4-[[1-[(4-fluorophenyl)methyl]-1H-benzimidazol-2-yl]methyl]-1-piperidinyl]ethyl]-3-pyridazinamine]  0.01 mg/kg
